Source: ChEMBL document CHEMBL1153043, “Synthesis and evaluation of 1-(benzo[b]thiophen-2-yl)ethanone analogues as novel anti-osteoporosis agents acting on BMP-2 promotor” (Bioorg Med Chem Lett, 2009)

What was measured:
[1] = Enhancement of BMP-2 expression in mouse MC3T3-E1 cells assessed as upregulation rate at 4 uM; type: functional, cell-based
Rattus norvegicus [2] = assay: Antiosteoporotic activity in ovariectomized Sprague-Dawley rat assessed as trabecular bone volume at 20 mg/kg/day, po for 90 days by bone histomorphometry; type: functional, Trabecula
Rattus norvegicus [3] = assay: Antiosteoporotic activity in ovariectomized Sprague-Dawley rat assessed as mineral apposition rate at 10 mg/kg/day, po for 90 days by bone histomorphometry; type: functional
Rattus norvegicus [4] = assay: Antiosteoporotic activity in ovariectomized Sprague-Dawley rat assessed as mineral apposition rate at 20 mg/kg/day, po for 90 days by bone histomorphometry; type: functional
Rattus norvegicus [5] = assay: Antiosteoporotic activity in ovariectomized Sprague-Dawley rat assessed as trabecula resorption surface at 20 mg/kg/day, po for 90 days by bone histomorphometry; type: functional
Rattus norvegicus [6] = assay: Antiosteoporotic activity in ovariectomized Sprague-Dawley rat assessed as trabecula resorption surface at 40 mg/kg/day, po for 90 days by bone histomorphometry; type: functional
Rattus norvegicus [7] = assay: Antiosteoporotic activity in ovariectomized Sprague-Dawley rat assessed as average osteoid width at 10 mg/kg/day, po for 90 days by bone histomorphometry; type: functional
Rattus norvegicus [8] = assay: Antiosteoporotic activity in ovariectomized Sprague-Dawley rat assessed as osteo cortex mineralization rate at 40 mg/kg/day, po for 90 days by bone histomorphometry; type: functional
Rattus norvegicus [9] = assay: Antiosteoporotic activity in ovariectomized Sprague-Dawley rat assessed as trabecula formation surface at 40 mg/kg/day, po for 90 days by bone histomorphometry; type: functional
Rattus norvegicus [10] = assay: Antiosteoporotic activity in ovariectomized Sprague-Dawley rat assessed as average osteoid width at 40 mg/kg/day, po for 90 days by bone histomorphometry; type: functional
Rattus norvegicus [11] = assay: Antiosteoporotic activity in ovariectomized Sprague-Dawley rat assessed as trabecular bone volume at 10 mg/kg/day, po for 90 days by bone histomorphometry; type: functional, Trabecula
Rattus norvegicus [12] = assay: Antiosteoporotic activity in ovariectomized Sprague-Dawley rat assessed as mineral apposition rate at 40 mg/kg/day, po for 90 days by bone histomorphometry; type: functional
Rattus norvegicus [13] = assay: Antiosteoporotic activity in ovariectomized Sprague-Dawley rat assessed as average osteoid width at 20 mg/kg/day, po for 90 days by bone histomorphometry; type: functional
Rattus norvegicus [14] = assay: Antiosteoporotic activity in ovariectomized Sprague-Dawley rat assessed as osteo cortex mineralization rate at 20 mg/kg/day, po for 90 days by bone histomorphometry; type: functional
Rattus norvegicus [15] = assay: Antiosteoporotic activity in ovariectomized Sprague-Dawley rat assessed as trabecula formation surface at 20 mg/kg/day, po for 90 days by bone histomorphometry; type: functional
Rattus norvegicus [16] = assay: Antiosteoporotic activity in ovariectomized Sprague-Dawley rat assessed as osteo cortex mineralization rate at 10 mg/kg/day, po for 90 days by bone histomorphometry; type: functional
Rattus norvegicus [17] = assay: Antiosteoporotic activity in ovariectomized Sprague-Dawley rat assessed as trabecula resorption surface at 10 mg/kg/day, po for 90 days by bone histomorphometry; type: functional
Rattus norvegicus [18] = assay: Antiosteoporotic activity in ovariectomized Sprague-Dawley rat assessed as trabecula formation surface at 10 mg/kg/day, po for 90 days by bone histomorphometry; type: functional
Rattus norvegicus [19] = assay: Antiosteoporotic activity in ovariectomized Sprague-Dawley rat assessed as trabecular bone volume at 40 mg/kg/day, po for 90 days by bone histomorphometry; type: functional, Trabecula
Rattus norvegicus [20] = assay: Antiosteoporotic activity in ovariectomized Sprague-Dawley rat assessed as mineral apposition rate at 5 mg/kg/day, po for 90 days by bone histomorphometry; type: functional
Rattus norvegicus [21] = assay: Antiosteoporotic activity in ovariectomized Sprague-Dawley rat assessed as trabecula resorption surface at 5 mg/kg/day, po for 90 days by bone histomorphometry; type: functional
Rattus norvegicus [22] = assay: Antiosteoporotic activity in ovariectomized Sprague-Dawley rat assessed as average osteoid width at 5 mg/kg/day, po for 90 days by bone histomorphometry; type: functional
Rattus norvegicus [23] = assay: Antiosteoporotic activity in ovariectomized Sprague-Dawley rat assessed as trabecular bone volume at 5 mg/kg/day, po for 90 days by bone histomorphometry; type: functional, Trabecula
Rattus norvegicus [24] = assay: Antiosteoporotic activity in ovariectomized Sprague-Dawley rat assessed as trabecula formation surface at 5 mg/kg/day, po for 90 days by bone histomorphometry; type: functional
Rattus norvegicus [25] = assay: Antiosteoporotic activity in ovariectomized Sprague-Dawley rat assessed as osteo cortex mineralization rate at 5 mg/kg/day, po for 90 days by bone histomorphometry; type: functional
[26] = Enhancement of BMP-2 expression in mouse MC3T3-E1 cells assessed as upregulation rate at 0.4 uM; type: functional, cell-based

Compound: CC(=O)c1cc2cccc(C(F)(F)F)c2s1
- Activity [1]: 30.2%

Compound: CC(=O)c1cc2ccccc2o1
- Activity (Rattus norvegicus [2]): 13.13%
- Activity (Rattus norvegicus [3]): 2.31 µm/day
- Activity (Rattus norvegicus [4]): 2.34 µm/day
- Activity (Rattus norvegicus [5]): 7.15%
- Activity (Rattus norvegicus [6]): 5.3%
- Activity (Rattus norvegicus [7]): 11.2 µm
- Activity (Rattus norvegicus [8]): 3.3 µm/day
- Activity (Rattus norvegicus [9]): 6.74%
- Activity (Rattus norvegicus [10]): 11 µm
- Activity (Rattus norvegicus [11]): 12.39%
- Activity [1]: 33.5%
- Activity (Rattus norvegicus [12]): 2.2 µm/day
- Activity (Rattus norvegicus [13]): 11.6 µm
- Activity (Rattus norvegicus [14]): 3.51 µm/day
- Activity (Rattus norvegicus [15]): 6.75%
- Activity (Rattus norvegicus [16]): 3.28 µm/day
- Activity (Rattus norvegicus [17]): 7.84%
- Activity (Rattus norvegicus [18]): 7.26%
- Activity (Rattus norvegicus [19]): 17.5%

Compound: CC(=O)c1csc2ccccc12
- Activity [1]: 11.9%

Compound: O=C(c1ccc(OCCN2CCCCC2)cc1)c1c(-c2ccc(O)cc2)sc2cc(O)ccc12 [RALOXIFENE]
- Activity (Rattus norvegicus [20]): 2.14 µm/day
- Activity (Rattus norvegicus [21]): 3.34%
- Activity (Rattus norvegicus [22]): 11.1 µm
- Activity (Rattus norvegicus [23]): 22.31%
- Activity (Rattus norvegicus [24]): 6.52%
- Activity (Rattus norvegicus [25]): 3.15 µm/day

Compound: CC(=O)c1cc2c(Cl)ccc(C)c2s1
- Activity [1]: 32%

Compound: CC(=O)c1sc2ccc(C)c(Cl)c2c1C
- Activity [1]: 6.5%

Compound: NNC(=O)c1cc2ccccc2s1
- Activity [1]: 7.8%

Compound: CC[C@H](C)C(=O)O[C@H]1C[C@@H](C)C=C2C=C[C@H](C)[C@H](CC[C@@H]3C[C@@H](O)CC(=O)O3)[C@H]21
- Activity [26]: 20.9%

Compound: NC(=O)c1cc2ccccc2s1
- Activity [1]: 11.2%

Compound: O=C(O)c1cc2ccccc2s1
- Activity [1]: 10.8%
